Data from ChEMBL document CHEMBL4334442, “Effects of Acetylshikonin on the Infection and Replication of Coxsackievirus A16 in Vitro and in Vivo” (J Nat Prod, 2019).
Active and inactive are the calls of the source. No cut-off for these calls is given here.

Columns and labels:
Coxsackievirus A16 [1] = assay: Antiviral activity against Coxsackievirus A16 TA271 infected in ICR mouse assessed as mild alveolar fibrosis in lung at 2 mg/kg, im after 5 days post infection by H and E staining based histopathological analysis; assay type: functional, organism-based
[2] = Cytotoxicity against human RD cells assessed as cell survival at <5 uM after 24 hrs by CCK8 assay relative to control; assay type: cell-based; conditions: read-out: Activity
Coxsackievirus A16 [3] = assay: Antiviral activity against Coxsackievirus A16 TA271 infected in RD cells at release stage assessed as appearance of cell shrinkage at 0.08 uM/L preincubated with cells for 1 hr followed by replacement of fresh medium containing compounds after 5 hrs post infection and further incubated for 16 hrs post infection by inverted microscopic analysis; assay type: functional, cell-based
Coxsackievirus A16 [4] = assay: Antiviral activity against Coxsackievirus A16 TA271 infected in ICR mouse assessed as reduction in viral load in hind limb muscle at 0.08 uM/L preincubated with viral suspension for 2 hrs followed by intramuscular administration after 3 to 5 days post infection by RT-PCR analysis; assay type: functional
Coxsackievirus A16 [5] = assay: Antiviral activity against Coxsackievirus A16 TA271 infected in RD cells assessed as effect on viral load at release stage at 0.08 uM/L preincubated with cells for 1 hr followed by replacement of fresh medium containing compounds for 16 hrs and measured after 48 hrs post infection by RT-PCR analysis; assay type: functional, cell-based
Coxsackievirus A16 [6] = assay: Antiviral activity against Coxsackievirus A16 TA271 infected in ICR mouse assessed as reduction in inflammatory cell infiltration in lung at 2 mg/kg, im after 5 days post infection by H and E staining based histopathological analysis; assay type: functional, organism-based
Coxsackievirus A16 [7] = assay: Antiviral activity against Coxsackievirus A16 TA271 infected in ICR mouse assessed as mouse survival at 2 mg/kg, im measured on day 6 post infection relative to control; assay type: functional; conditions: Enterovirus A, 144 h
Coxsackievirus A16 [8] = assay: Antiviral activity against Coxsackievirus A16 TA271 infected in ICR mouse assessed as reduction in viral load in heart at 0.08 uM/L preincubated with viral suspension for 2 hrs followed by intramuscular administration after 3 to 5 days post infection by RT-PCR analysis; assay type: functional
Coxsackievirus A16 [9] = assay: Antiviral activity against Coxsackievirus A16 TA271 infected in ICR mouse assessed as mild alveolar fibrosis in spinal muscle at 2 mg/kg, im after 5 days post infection by H and E staining based histopathological analysis; assay type: functional, organism-based
Mus musculus [10] = assay: Effect on IL-6 level in ICR mouse at 2 mg/kg, administered intramuscularly by ELISA; assay type: functional, organism-based
Coxsackievirus A16 [11] = assay: Antiviral activity against Coxsackievirus A16 TA271 infected in ICR mouse assessed as mouse survival at 0.08 uM/L preincubated with viral suspension for 2 hrs followed by intramuscular administration and measured on day 7 post infection relative to control; assay type: functional; conditions: Enterovirus A, TA271, im
Coxsackievirus A16 [12] = assay: (§1) Antiviral activity against Coxsackievirus A16 TA271 infected in RD cells at replication stage assessed as appearance of rounded cells at 0.08 uM/L 1 hr post-infection viral inoculum was removed and cells incubated with medium containing compound and measured after 5 hrs by inverted microscopic analysis; assay type: functional, cell-based
Coxsackievirus A16 [13] = assay: Antiviral activity against Coxsackievirus A16 TA271 infected in RD cells assessed as effect on viral load at replication stage at 0.08 uM/L preincubated for 1 hr followed by replacement of medium containing compound for 5 hrs and measured after 48 hrs post infection by RT-PCR analysis; assay type: functional, cell-based
Coxsackievirus A16 [14] = assay: Antiviral activity against Coxsackievirus A16 TA271 infected in ICR mouse assessed as reduction in inflammatory cell infiltration in spinal muscle at 2 mg/kg, im after 5 days post infection by H and E staining based histopathological analysis; assay type: functional, organism-based
[15] = Toxicity in ICR mouse infected with Coxsackievirus A16 TA271 assessed as increase in body weight at 0.08 uM/L preincubated with viral suspension for 2 hrs followed by intramuscular administration and measured every day; conditions: in vivo, im
Coxsackievirus A16 [16] = assay: Antiviral activity against Coxsackievirus A16 TA271 infected in RD cells at preinfection stage assessed as cell detachment at 0.08 uM/L preincubated with cells for 3 hrs followed by viral infection and measured after 1 hr by inverted microscopic analysis; assay type: functional, cell-based
Coxsackievirus A16 [17] = assay: as §1, with “cell shrinkage” for “rounded cells”; assay type: functional, cell-based
Coxsackievirus A16 [18] = assay: Antiviral activity against Coxsackievirus A16 TA271 infected in ICR mouse assessed as reduction in muscle fiber breakage in lung at 2 mg/kg, im after 5 days post infection by H and E staining based histopathological analysis; assay type: functional, organism-based
Coxsackievirus A16 [19] = assay: Antiviral activity against Coxsackievirus A16 TA271 infected in ICR mouse assessed as reduction in lesions in spinal muscle at 2 mg/kg, im after 5 days post infection by H and E staining based histopathological analysis; assay type: functional, organism-based
Coxsackievirus A16 [20] = assay: Antiviral activity against Coxsackievirus A16 TA271 infected in ICR mouse assessed as reduction in muscle fiber breakage in hind limb muscle at 2 mg/kg, im after 5 days post infection by H and E staining based histopathological analysis; assay type: functional, organism-based
Coxsackievirus A16 [21] = assay: Antiviral activity against Coxsackievirus A16 TA271 infected in ICR mouse assessed as reduction in virus-induced IFN-gamma level at 2 mg/kg, im after 3 days post infection by ELISA; assay type: functional, organism-based
Coxsackievirus A16 [22] = assay: Antiviral activity against Coxsackievirus A16 TA271 infected in RD cells at preinfection stage assessed as cell fragmentation at 0.08 uM/L preincubated with cells for 3 hrs followed by viral infection and measured after 1 hr by inverted microscopic analysis; assay type: functional, cell-based
[23] = Selectivity index, ratio of CC50 for cytotoxicity against human RD cells to EC50 for antiviral activity against Coxsackievirus A16 TA271 infected in human RD cells; assay type: toxicity, cell-based; conditions: read-out: Ratio CC50/EC50
Coxsackievirus A16 [24] = assay: Antiviral activity against Coxsackievirus A16 TA271 infected in ICR mouse assessed as reduction in viral load in spinal muscle at 0.08 uM/L preincubated with viral suspension for 2 hrs followed by intramuscular administration after 3 to 5 days post infection by RT-PCR analysis; assay type: functional
Mus musculus [25] = assay: Effect on IFN-gamma level in ICR mouse at 2 mg/kg, administered intramuscularly by ELISA; assay type: functional, organism-based
Coxsackievirus A16 [26] = assay: Antiviral activity against Coxsackievirus A16 TA271 infected in RD cells assessed as inhibition of viral adsorption/entry by measuring reduction in viral load at 0.08 uM/L incubated for 1 hr and measured after 48 hrs post infection by RT-PCR analysis; assay type: functional, cell-based
Coxsackievirus A16 [27] = assay: Antiviral activity against Coxsackievirus A16 TA271 infected in RD cells at replication stage assessed as cell fragmentation at 0.08 uM/L 1 hr post-infection viral inoculum was removed and cells incubated with medium containing compound and measured after 5 hrs by inverted microscopic analysis; assay type: functional, cell-based
Coxsackievirus A16 [28] = assay: Antiviral activity against Coxsackievirus A16 TA271 infected in ICR mouse assessed as reduction in lesions in heart at 2 mg/kg, im after 5 days post infection by H and E staining based histopathological analysis; assay type: functional, organism-based
Coxsackievirus A16 [29] = assay: Antiviral activity against Coxsackievirus A16 TA271 infected in RD cells at replication stage assessed as cell detachment at 0.08 uM/L 1 hr post-infection viral inoculum was removed and cells incubated with medium containing compound and measured after 5 hrs by inverted microscopic analysis; assay type: functional, cell-based
Coxsackievirus A16 [30] = assay: Antiviral activity against Coxsackievirus A16 TA271 infected in ICR mouse assessed as effect on virus-induced IL-6 level at 2 mg/kg, im after 3 days post infection by ELISA; assay type: functional, organism-based
[31] = Toxicity in ICR mouse infected with Coxsackievirus A16 TA271 assessed as increase in body weight at 2 mg/kg, im and measured every day; assay type: organism-based; conditions: in vivo

## CC(=O)OC(CC=C(C)C)C1=CC(=O)c2c(O)ccc(O)c2C1=O (stereo unspecified)
Coxsackievirus A16 [1]
  Activity: Active
[2]
  viability at 24 h: > 90%
Coxsackievirus A16 [3]
  Activity: inactive
Coxsackievirus A16 [4]
  Activity: Active
Coxsackievirus A16 [5]
  Activity: inactive
Coxsackievirus A16 [6]
  Activity: Active
Coxsackievirus A16 [7]
  survival at 2 mg/kg: 50%
Coxsackievirus A16 [8]
  Activity: Active
Coxsackievirus A16 [9]
  Activity: Active
Mus musculus [10]
  Activity: inactive
Coxsackievirus A16 [11]
  survival at 0.08 µM: 70%
Coxsackievirus A16 [12]
  Activity: inactive
Coxsackievirus A16 [13]
  Activity: inactive
Coxsackievirus A16 [14]
  Activity: Active
[15]
  Activity: Non-Toxic
Coxsackievirus A16 [16]
  Activity: inactive
Coxsackievirus A16 [17]
  Activity: inactive
Coxsackievirus A16 [18]
  Activity: Active
Coxsackievirus A16 [19]
  Activity: Active
Coxsackievirus A16 [20]
  Activity: Active
Coxsackievirus A16 [21]
  Activity: Active
Coxsackievirus A16 [22]
  Activity: inactive
[23]
  selectivity ratio: 235
Coxsackievirus A16 [24]
  Activity: Active
Mus musculus [25]
  Activity: inactive
Coxsackievirus A16 [26]
  Activity: Active
Coxsackievirus A16 [27]
  Activity: inactive
Coxsackievirus A16 [28]
  Activity: Active
Coxsackievirus A16 [29]
  Activity: inactive
Coxsackievirus A16 [30]
  Activity: inactive
[31]
  Activity: Non-Toxic
